In PubChem BioAssay (NCI) one finds GI50 and TGI data, which are given here for 23 compounds.

Assay in all cases: DTP human tumour cell line panel, 48 h
The subject of experiment [1] is SW-620 colon.
In experiment [2] the test system is OVCAR-4 ovarian.
In experiment [3] the test system is UACC-62 melanoma.
For experiment [4], the system named is EKVX NSCLC.
Experiment [5] has as its system SK-MEL-2 melanoma.
In experiment [6] the test system is HCT-116 colon.
Experiment [7] relates to SF-268 CNS.
The subject of experiment [8] is MALME-3M melanoma.
Experiment [9] concerns CCRF-CEM leukemia.
Experiment [10] concerns A498 renal.

“And” between values parts separate entries of the source, which are not always exact repeats. Equal entries are not always repeated.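 Results reflect a 48-hour exposure of cells in 96-well plates to compound at five concentrations. The concentration for 50% growth inhibition is given as GI50. TGI: concentration producing complete growth inhibition.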 Bounds are passed on as bounds.

One may read the GI50 as the concentration that inhibits growth by half. What is called TGI is the concentration at which net growth stops. The low end stands for more potent growth arrest, the high end for less potent growth arrest. Regarding `[Cl][Bi]([O]c1ccccn1)[O]c1ccccn1`, the GI50 in experiment [1], in experiment [2], in [3], in [4], in [5] and in [6] was over 100 µM throughout. The GI50 in experiment [7] and in experiment [8] was over 100 µM throughout. The concentration for total growth inhibition (TGI) in [1], in experiment [2], in experiment [3], in [4], in experiment [5] and in experiment [6] was over 100 µM in each case. Moreover, the TGI in experiment [7] and in experiment [8] was over 100 µM throughout.
For `Clc1ccc(Cl)c2[s+]snc12`, the TGI in experiment [1] is over 51.9 µM; in [2], over 100 µM; in experiment [9], over 100 µM; in [3], over 100 µM; in [4], over 100 µM; in experiment [10], over 100 µM. In addition, the values for the TGI in experiment [6], in [7] and in experiment [8] were over 54.9 µM, over 100 µM and 99.5 µM, respectively.
Take `CCCN(CCCCC(NC(C)=O)C(=O)NCc1ccccc1)C(=O)NCCCl` (centres undefined): the TGI in experiment [1], in experiment [2], in experiment [9], in [3], in experiment [4] and in experiment [6] was over 100 µM throughout. The concentration for total growth inhibition (TGI) in [7] and in [8] was over 100 µM throughout.
Consider `C1CC[N-]CC1.C1CC[N-]CC1.C1CC[N-]CC1.C1CC[N-]CC1.[Cl][Rh][Cl]`, for which the GI50 in experiment [1] was 6.12 µM; in experiment [2] it was 5.43 µM; in [9], 3.46 µM; in [10], 15.6 µM; in experiment [5] it was 12.7 µM; in experiment [6] it was 4.75 µM. Besides, the GI50 in experiment [7] was 5.21 µM; in [8], 6.64 µM. Besides, the TGI in experiment [1] was over 100 µM; in [2], over 100 µM; in experiment [9], 72.4 µM; in experiment [10], 55.2 µM; in experiment [5], 41.8 µM; in [6] it was over 100 µM. Moreover, the TGI in experiment [7] is 27.9 µM; in experiment [8], 43.4 µM.
Take `CC(=O)Nc1ccc(C(=O)N2N=C(C)/C(=C/c3ccccc3O)C2=O)cc1`: the TGI in experiment [1], in experiment [2], in experiment [9], in [4], in experiment [5] and in experiment [6] was over 100 µM throughout. Besides, the TGI in experiment [7] and in experiment [8] was over 100 µM in each case.
In the case of `Cc1cccc(-c2nc3c(C(=O)NCCN(C)C)cccc3[nH]2)c1`, the TGI worked out at 1.91 µM in [1]; 3.64 µM in experiment [2]; 3.2 µM in [3]; 3.5 µM in [4]; 3.34 µM in experiment [10]; 3.26 µM in experiment [5]. For the same compound, the TGI is 1.55 µM in [6] and 5.28 µM in experiment [7].
As to `Nc1ccccc1C#C/C=C\C#Cc1ccccc1C(F)(F)F`, the GI50 in experiment [1] is 1.5 µM; in [9], 17.7 µM; in experiment [3], 0.255 µM; in [4] it was 0.895 µM; in experiment [10], 2.55 µM; in experiment [5] it was 21.8 µM. Moreover, the GI50 in [6] is 0.432 µM; in [7], 1.67 µM. The TGI in experiment [1] is 41 µM; in experiment [9], over 100 µM; in [3], 3.04 µM; in experiment [4] it was 15.2 µM; in experiment [10] it was 16.9 µM; in experiment [5] it was over 100 µM. In addition, the TGI in [6] is over 35.4 µM; in [7], 20.4 µM.
With `CCOP(=O)(OCC)C(NC(c1ccccc1)c1ccccc1)c1ccccc1` (centres undefined), the GI50 is 15 µM in experiment [1]; 51.8 µM in experiment [2]; 18.2 µM in experiment [9]; 12.1 µM in experiment [3]; 13.4 µM in experiment [4]; 22.3 µM in [5]. In addition, the figures for the GI50 in experiment [6] and in [7] were 13.2 µM and 15.6 µM, respectively. Also, the TGI in [1] is 31.7 µM; in experiment [2] it was over 100 µM; in [9], 58.8 µM; in experiment [3] it was 25.9 µM; in experiment [4], 28.5 µM; in [5] it was 52.2 µM. The figures for the TGI in [6] and in [7] were 26 µM and 35.4 µM, respectively.
In the case of `CC1OC(n2ncc(=O)[nH]c2=O)C=CC1=O` (centres undefined), the GI50 was > 100 µM and 44.1 µM in experiment [1]; > 100 µM and 49.2 µM in experiment [5]; > 100 µM and 36.6 µM in experiment [7]. Also, the TGI in experiment [1], in experiment [2], in experiment [3], in [5], in [6] and in experiment [7] was over 100 µM each time. In [8], the TGI is 40.2 µM and 48.3 µM.
In the case of `Cc1cn(C2CC(F)C(CO)O2)c(=O)[nH]c1=O` (centres undefined), the GI50 in experiment [2], in [9], in experiment [3], in [4], in experiment [5] and in [6] was over 100 µM each time. Moreover, the GI50 in experiment [8] was over 100 µM. Further, the TGI in experiment [2], in [9], in [3], in [4], in experiment [5] and in experiment [6] was over 100 µM throughout. The compound further registered a TGI in experiment [8] of over 100 µM.
As for `COc1cc2oc(=O)ccc2cc1C1OC(=O)C2OC21C` (centres undefined), the TGI in experiment [1], in experiment [2], in experiment [9], in [3], in [4] and in [5] was over 100 µM each time. Also, the TGI in [6], in experiment [7] and in experiment [8] was over 100 µM throughout.
Turning to `CC(=O)O[C@H]1C(=O)[C@@]2(C)C(C(OC(=O)c3ccccc3)[C@]3(O)CC(OC(=O)[C@H](OC(=O)CCC(=O)O)C(NC(=O)c4ccccc4)c4ccccc4)C(C)=C1C3(C)C)C1(OC(C)=O)COC1C[C@@H]2OC(=O)CCC(=O)O` (some centres undefined), the TGI in experiment [1] was over 100 µM; in [2], over 100 µM; in [3] it was 29.3 µM; in [4], over 100 µM; in experiment [10], 5.65 µM; in [6], over 100 µM. The TGI in experiment [7] and in experiment [8] was over 100 µM each time. In addition, the GI50 in experiment [3] was 2.05 µM; in [10], 0.0997 µM.
Take `[N-]=[N+]=NC(c1cn(C2CC(O)C(CO)O2)c(=O)[nH]c1=O)C(Br)I` (centres undefined): the TGI in experiment [1], in experiment [9], in experiment [3], in experiment [4], in [5] and in experiment [6] was over 100 µM throughout. In experiment [8], this compound yielded a TGI of over 100 µM.
`O=c1c2ccccc2c2ccccc2c(=O)n1-c1cc2c3ccccc3ccc2c2ccccc12`: the TGI in experiment [1], in experiment [2], in experiment [3], in [4], in experiment [10] and in [5] was over 100 µM in each case. The TGI in [6], in [7] and in [8] was over 100 µM each time.
Regarding `Cc1cccc(C(C)(C)C)c1NC(=O)C(=O)C(C(=O)/C=C\c1ccccc1)C1OC(=O)c2ccccc21` (centres undefined), the TGI in experiment [1], in experiment [2], in [9], in [3], in experiment [4] and in [10] was over 100 µM throughout. Besides, the TGI in experiment [6], in experiment [7] and in experiment [8] was over 100 µM throughout.
Consider `O=C(O)CNc1c2ccccc2nc2ccccc12`, for which the TGI in experiment [1], in [2], in [9], in experiment [3], in [4] and in [5] was over 100 µM each time. Also, the TGI in experiment [6], in [7] and in [8] was over 100 µM in each case.
Regarding `CCCCCCCCCCC/C(=N/O)c1ccc(O)c2ncccc12`, the TGI was over 100 µM in [1]; 19.2 µM in experiment [2]; 20.1 µM in experiment [4]; 5.86 µM in experiment [5]; 59.9 µM in experiment [6]; over 100 µM in experiment [7]. This compound also showed a TGI in experiment [8] of 12.6 µM.
In the case of `N[C@@H](Cc1c[nH]c2ccccc12)C(=O)NC1CCN(C(=O)c2c[nH]c3ccccc23)CC1`, the GI50 is over 100 µM in experiment [1]; 69.2 µM in [2]; over 100 µM in experiment [9]; over 100 µM in experiment [3]; over 100 µM in experiment [4]; over 100 µM in experiment [5]. For the same compound, the results for the GI50 in [6], in [7] and in experiment [8] were 36.3 µM, over 100 µM and 77.5 µM, respectively. Besides, the TGI in [1], in experiment [2], in [9], in [3], in experiment [4] and in experiment [5] was over 100 µM each time. In addition, the TGI in experiment [6], in experiment [7] and in experiment [8] was over 100 µM throughout.
For the compound `Cc1c(C#N)cccc1-c1cc(-c2cn(Cc3cccc(C(C)(C)O)n3)nn2)nc(N)n1`, the GI50 in [1] was 51.3 µM; in experiment [2], 9.69 µM; in experiment [9] it was 16.3 µM; in experiment [3] it was 12 µM; in [4], 27.8 µM; in experiment [5] it was 21.3 µM. For the same compound, the values for the GI50 in experiment [6], in experiment [7] and in experiment [8] were 32.1 µM, 45.4 µM and 31.3 µM, respectively. Moreover, the TGI in [1] was over 100 µM; in experiment [2], over 100 µM; in experiment [9], over 100 µM; in [3], 57.9 µM; in experiment [4], over 100 µM; in [5] it was 79.3 µM. Besides, the TGI in experiment [6], in experiment [7] and in experiment [8] was over 100 µM each time.
For the compound `CCN(CC)c1ccc(/C=C\c2cc(C)c3cc(C)ccc3n2)cc1`, the GI50 in experiment [1] is 3.52 µM; in experiment [2] it was 9.63 µM; in experiment [3], 3.92 µM; in [4] it was 45.6 µM; in [10] it was 2.19 µM; in experiment [5] it was 7.24 µM. Further, the GI50 was 3.2 µM in experiment [6], 6.48 µM in experiment [7] and 4.68 µM in experiment [8]. In addition, the TGI is over 100 µM in [1]; over 100 µM in experiment [2]; over 100 µM in experiment [3]; over 100 µM in [4]; 8.33 µM in experiment [10]; 81 µM in experiment [5]. Also, the TGI in experiment [6], in experiment [7] and in [8] was over 100 µM in each case.
In the case of `CCCC1c2c(ccc3ccccc23)Oc2ccc3ccccc3c21`, the TGI in experiment [1] is over 100 µM; in experiment [2], over 100 µM; in experiment [3] it was over 100 µM; in experiment [4] it was over 100 µM; in [10], 78 µM; in experiment [5], 54.3 µM. The TGI in experiment [6], in experiment [7] and in experiment [8] was over 100 µM in each case.
Take `COc1ccc(/C=N/N=C(\N)NO)cc1OC`: the TGI is over 100 µM in experiment [1]; over 100 µM in experiment [2]; over 100 µM in experiment [9]; 72.1 µM in [3]; over 100 µM in [4]; over 100 µM in experiment [5]. The TGI in experiment [6] is over 100 µM; in experiment [7], 73.6 µM; in [8] it was over 100 µM.
In the case of `OCCCCC#Cc1ccccc1C#Cc1ccccc1`, the GI50 in [1] is 15.7 µM; in [2], 18 µM; in experiment [3] it was 11.1 µM; in experiment [4], 6.59 µM; in [5], 40 µM; in [6], 16.8 µM. In addition, the GI50 in experiment [7] is 16.8 µM; in experiment [8], 16.9 µM. Besides, the TGI is 34.4 µM in experiment [1]; 53.2 µM in experiment [2]; 23.5 µM in experiment [3]; 22.4 µM in experiment [4]; over 100 µM in experiment [5]; 31.6 µM in [6]. For the same compound, the TGI was found to be 37.6 µM in experiment [7] and 32.1 µM in [8].
